Data published in patent US8372971B2, “Heterocyclic compounds and methods of use” (TargeGen, Inc., priority 2004, dated 2013).
Counter-ions that a name gives are not always drawn.

Tested on: HUVECs
Experiment: XTT cell viability assay (Example 106)
Format: cell-based, human
Details: Homo sapiens, HUVEC, 72 hours, read-out: Inhibition of HUVEC cell prolifiration (IC50)
Description: Some compounds described by the general structure (B) were tested for cell viability. XTT assay: HUVECs were seeded at 10,000 cells/well of a tissue culture treated 96-well plate treated with collagen type I and grown overnight in the complete EGM-2 media as described above. The following morning, the inhibitors were serial diluted with DMSO and added to the cells with a final DMSO concentration of 1%. After 72 hours cell viability was measured with an XTT assay (Sigma, St. Louis, Mo.). The cells were also photographed to compare morphological differences to the XTT trends observed. Determination of the IC50 values was performed with quantitative software (Prism software package, GraphPad Software, San Diego Calif.).

Row | SMILES | IC50
1 | FC(F)(F)c1cc(-c2nnc(Nc3ccc(Oc4ccncc4)cc3)[nH]2)ccc1Cl [5-[4-chloro-3-(trifluoromethyl)phenyl]-N-[4-(pyridine-4-yloxy)phenyl]-4H-1,2,4-triazol-3-amine trifluoroacetate salt] | > 40 µM
2 | CNC(=O)c1cc(Oc2ccc(Nc3nnc(-c4ccc(Cl)c(C(F)(F)F)c4)[nH]3)cc2)ccn1 [4-[4-({5-[4-chloro-3-(trifluoromethyl)phenyl]-4H-1,2,4-triazol-3-yl}amino)phenoxy]-N-methylpyridine-2-carboxamide trifluoroacetate salt] | > 40 µM
3 | CNC(=O)c1cc(Oc2ccc(Nc3nnc(-c4ccc(OC(F)(F)F)cc4)[nH]3)cc2)ccn1 [4-{4-[5-(4-trifluoromethoxy-phenyl)-4H-[1,2,4]triazol-3-ylamino]-phenoxy}-pyridine-2-carboxylic acid methylamide trifluoroacetic acid salt] | 2.2 µM
4 | FC(F)(F)c1ccc(Cl)c(Nc2nnc(-c3ccc(Oc4cncnc4)cc3)o2)c1 [5-[4-(Pyrimidin-5-yloxy)phenyl]-N-[2-chloro-5-(trifluoromethyl)-phenyl]-1,3,4-oxadiazol-2-amine] | ~20 µM
5 | CNC(=O)c1cc(Oc2ccc(-c3nnc(Nc4ccc(OC(F)(F)F)cc4)[nH]3)cc2)ccn1 [4-{4-[5-(4-trifluoromethoxy-phenylamino)-4H-[1,2,4]triazol-3-yl]-phenoxy}-pyridine-2-carboxylic acid methylamide trifluoroacetic acid salt] | > 40 µM
6 | Nc1ccc(Oc2ccc(-c3nnc(Nc4ccc(OC(F)(F)F)cc4)[nH]3)cc2)nn1 [6-{4-[5-(4-trifluoromethoxy-phenylamino)-4H-[1,2,4]triazol-3-yl]-phenoxy}-pyridazin-3-ylamine trifluoroacetic acid salt] | > 20 µM
7 | FC(F)(F)Oc1ccc(Nc2nnc(-c3ccc(Oc4ccncc4)cc3)[nH]2)cc1 [{5-[4-(pyridin-4-yloxy)-phenyl]-4H-[1,2,4]triazol-3-yl]-(4-trifluoromethoxy-phenyl)-amine trifluoroacetic acid salt] | > 40 µM
8 | Nc1cc(Oc2ccc(-c3nnc(Nc4ccc(OC(F)(F)F)cc4)[nH]3)cc2)nc(N)n1 [6-{4-[5-(4-trifluoromethoxy-phenylamino)-4H-[1,2,4]triazol-3-yl]-phenoxy}-pyrimidine-2,4-diamine trifluoroacetic acid salt] | 6 µM
9 | CNC(=O)c1cc(Oc2cccc(-c3nnc(Nc4ccc(Cl)c(C(F)(F)F)c4)[nH]3)c2)ccn1 [4-{3-[5-(4-chloro-3-trifluoromethyl-phenylamino)-4H-[1,2,4]triazol-3-yl]-phenoxy}-pyridine-2-carboxylic acid methylamide trifluoroacetic acid salt] | > 20 µM
10 | Nc1ccc(Oc2ccc(-c3nnc(Nc4ccc(Cl)c(C(F)(F)F)c4)[nH]3)cc2)nn1 [6-{4-[5-(4-chloro-3-trifluoromethyl-phenylamino)-4H-[1,2,4]triazol-3-yl]-phenoxy}-pyridazin-3-ylamine trifluoroacetic acid salt] | 1.79 µM
11 | Nc1cc(Oc2ccc(-c3nnc(Nc4cc(C(F)(F)F)ccc4Cl)o3)cc2)nc(N)n1 [6-(4-{5-[(2-chloro-5-trifluoromethyl-phenyl)amino]-1,3,4-oxadiazol-2-yl}phenoxy)pyrimidine-2,4-diamine] | ~20 µM
